What was measured:
Test in all cases: Enzyme inhibiting activity of MMPs, fluorogenic peptide substrate
Type in all cases: biochemical
MMP-13 = molecular target: T1, MMP-13 (Homo sapiens, UniProt P45452); conditions: APMA-activated proenzyme; substrate MOCAc-Pro-Leu-Gly-Leu-A2Pr(DNP)-Ala-Arg-NH2, fluorescent intensity; read-out: IC50 MMP-13
T1 construct: purchased Calbiochem (EMD/MERCK Biosciences)
Method in brief: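 Pro-MMP-13 was activated with 1 mM APMA at 37° C for 2 h in 50 mM Tris-HCl pH 7.6, 0.3 M NaCl, 10 mM CaCl2, 0.005% Brij35. Activity was read by fluorescence using MOCAc-Pro-Leu-Gly-Leu-A2Pr(DNP)-Ala-Arg-NH2 substrate, with enzyme and inhibitor blank corrections. IC50 is the concentration giving 50% inhibition.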

MMP-9 = molecular target: T2, MMP-9 (Homo sapiens, UniProt P14780); conditions: substrate MOCAc-Pro-Leu-Gly-Leu-A2Pr(DNP)-Ala-Arg-NH2, fluorescent intensity
T2 construct: purchased Calbiochem (EMD/MERCK Biosciences)
Method in brief: (§1)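 Recombinant human enzymes with the fluorogenic substrate MOCAc-Pro-Leu-Gly-Leu-A2Pr(DNP)-Ala-Arg-NH2. Fluorescence was read for enzyme+substrate±inhibitor and substrate±inhibitor blanks.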

MMP-2 = molecular target: T3, MMP-2 (Homo sapiens, UniProt P08253); conditions: substrate MOCAc-Pro-Leu-Gly-Leu-A2Pr(DNP)-Ala-Arg-NH2, fluorescent intensity
T3 construct: purchased Calbiochem (EMD/MERCK Biosciences)
T3 sequence (P08253 110-660): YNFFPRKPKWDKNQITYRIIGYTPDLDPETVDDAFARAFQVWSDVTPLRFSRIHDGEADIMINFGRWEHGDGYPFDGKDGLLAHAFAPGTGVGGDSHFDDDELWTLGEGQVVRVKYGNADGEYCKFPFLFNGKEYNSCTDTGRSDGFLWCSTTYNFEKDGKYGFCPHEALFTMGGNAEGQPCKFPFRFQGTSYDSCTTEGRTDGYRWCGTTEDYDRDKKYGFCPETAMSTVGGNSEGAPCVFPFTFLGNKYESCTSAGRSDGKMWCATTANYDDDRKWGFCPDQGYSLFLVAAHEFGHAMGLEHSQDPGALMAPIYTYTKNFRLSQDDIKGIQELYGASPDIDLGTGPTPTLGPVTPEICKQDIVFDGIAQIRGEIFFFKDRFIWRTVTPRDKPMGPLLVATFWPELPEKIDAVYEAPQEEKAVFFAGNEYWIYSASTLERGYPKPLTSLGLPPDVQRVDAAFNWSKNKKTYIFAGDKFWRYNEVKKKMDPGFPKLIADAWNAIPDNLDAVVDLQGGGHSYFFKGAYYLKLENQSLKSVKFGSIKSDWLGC
Method in brief: as §1

T2 sequence (P14780 94-707): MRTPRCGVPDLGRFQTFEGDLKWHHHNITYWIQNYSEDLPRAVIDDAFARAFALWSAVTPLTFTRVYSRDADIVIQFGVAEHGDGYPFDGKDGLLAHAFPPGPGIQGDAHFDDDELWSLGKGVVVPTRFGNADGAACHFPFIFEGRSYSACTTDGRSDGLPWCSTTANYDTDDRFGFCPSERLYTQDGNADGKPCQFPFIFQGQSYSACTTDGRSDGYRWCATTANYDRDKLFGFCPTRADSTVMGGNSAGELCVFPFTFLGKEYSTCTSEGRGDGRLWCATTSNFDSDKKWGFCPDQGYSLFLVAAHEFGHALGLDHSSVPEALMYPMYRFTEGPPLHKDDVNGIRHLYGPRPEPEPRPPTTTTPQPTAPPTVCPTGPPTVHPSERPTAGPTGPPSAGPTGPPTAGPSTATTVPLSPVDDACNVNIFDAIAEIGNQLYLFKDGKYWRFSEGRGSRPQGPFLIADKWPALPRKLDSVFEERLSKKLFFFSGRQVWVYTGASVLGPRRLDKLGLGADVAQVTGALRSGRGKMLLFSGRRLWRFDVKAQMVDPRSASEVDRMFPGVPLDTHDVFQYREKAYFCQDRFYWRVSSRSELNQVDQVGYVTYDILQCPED

| Molecule | IC50 (MMP-13) | IC50 (MMP-9) | IC50 (MMP-2) |
| --- | --- | --- | --- |
| C[C@@H](NS(=O)(=O)N1CCN(c2ccc(C#Cc3ccnc(C(=O)NCc4ccc5c(c4)oc(=O)n5C)c3)cc2)CC1)C(=O)O [Compound V-2, (R)-2-[4-(4-{2-(3-methyl-2-oxo-2,3-dihydrobenzoxazol-6-ylmethyl)-carbamoyl]-pyridin-4-ylethynyl}-phenyl)-piperazine-1-sulfonylaminol-proponic acid] | 1 nM | > 10000 nM | 1000 nM |
| C[C@@H](NS(=O)(=O)N1CCN(c2ccc(C#Cc3ccnc(C(=O)NCc4ccc(Cl)cc4)c3)cc2)CC1)C(=O)O [III-1, (R)-2-(4-{4-[2-(4-chrolobenzylcarbamoyl)-pyridin-4-ylethynyl]-phenyl}-piperazine-1-sulfonylamino)-proponic acid] | 3 nM | > 10000 nM | 1000 to 10000 nM |
| CC(=O)c1nccc2ccc(C#Cc3ccc(N4CCN(S(=O)(=O)N[C@@H](C(=O)O)C(C)C)CC4)cc3)cc12 [Compound V-1, (R)-2-{4-[4-(1-acetylisoquinolin-7-ylethynyl)-phenyl]-piperazine-1-sulfonylamino}-3-methylbutanoic acid] | 46 nM | > 10000 nM | 1000 to 10000 nM |
| (R)-3-methyl-2-{4-[4-(1-methyl2,4-dioxo-3-pyridin-4-ylmethyl-1,2,3,4-tetrahydroquinazolin-6-ylethynyl)-phenyl]-piperazine-1-sulfonylamino}-3-methylbutanoic acid [Compound V-77] | 4 nM | > 10000 nM | > 10000 nM |
| CC(C)[C@@H](NS(=O)(=O)N1CCN(c2ccc(C#Cc3ccc4c(c3)c(=O)n(CC#N)c(=O)n4C)cc2)CC1)C(=O)O [Compound V-68, (R)-2-{4-[4-(3-cyanomethyl-1-methyl-2,4-dioxo-1,2,3,4-tetrahydroquinazolin-6-ylethynyl)-phenyl]-piperazine-1-sulfonylamino}-3-methylbutanoic acid] | 5 nM | 1000 to 10000 nM | 1000 to 10000 nM |
| CC(C)Cc1coc(-c2cc(C#Cc3ccc(N4CCN(S(=O)(=O)N[C@@H](C(=O)O)C(C)C)CC4)cc3)ccn2)n1 [Compound V-8, (R)-2-(4-{4-[2-(4-isobutyloxazol-2-yl)-pyridin-4-ylethynyl]-phenyl}-piperazine-1-sulfonylamino)-3-methylbutanoic acid] | 7 nM | > 10000 nM | 1000 to 10000 nM |
| CCC[C@H](NS(=O)(=O)N1CCN(c2ccc(C#Cc3ccnc(C(=O)NCc4ccc(Cl)cc4)c3)cc2)CC1)C(=O)O [III-60, (S)-2-(4-{4-[2-(4-chrolobenzylcarbamoyl)-pyridin-4-ylethynyl]-phenyl}-piperazine-1-sulfonylamino)-pentanoic acid] | 6 nM | > 10000 nM | > 10000 nM |
| COc1ccc(CNC(=O)c2cc(C#Cc3ccc(N4CCN(S(=O)(=O)N[C@H](C(=O)O)C(C)C)CC4)cc3)ccn2)cc1 [Compound V-34, (5)-2-(4-{4-[2-(4-methoxybenzylcarbamoyl)-pyridin-4-ylethynyl]-phenyl}-piperazine-1-sulfonylamino)-3-methylbutanoic acid] | 5 nM | > 10000 nM | 1000 to 10000 nM |
| CC(C)[C@H](NS(=O)(=O)N1CCN(c2ccc(C#Cc3ccnc(C(=O)NCc4ccc(Cl)cc4)c3)cc2)CC1)C(=O)O [III-69, (S)-2-(4-{4-[2-(4-chrolobenzylcarbamoyl)-pyridin-4-ylethynyl]-phenyl}-piperazine-1-sulfonylamino)-3-methylbutanoic acid] | 7 nM | > 10000 nM | > 10000 nM |
| CNC(=O)Cc1cnc(-c2cc(C#Cc3ccc(N4CCN(S(=O)(=O)N[C@@H](C(=O)O)C(C)C)CC4)cc3)ccc2OCCOC)o1 [Compound V-28, (R)-2-(4-{4-[4-(2-methoxyethoxy)-3-(5-methylcarbamoylmethyloxazol-2-yl)-phenylethynyl]-phenyl}-piperazine-1-sulfonylamino)-3-methylbutanoic acid] | 16 nM | > 10000 nM | 1000 to 10000 nM |
| CC(C)[C@@H](NS(=O)(=O)N1CCN(c2ccc(C#Cc3ccc4c(c3)c(=O)n(Cc3ccc(F)cc3)c(=O)n4C)cc2)CC1)C(=O)O [Compound V-60, (R)-2-(4-{4-[3-(4-fluorobenzyl)-1-methyl-2,4-dioxo-1,2,3,4-tetrahydroquinazolin-6-ylethynyl]-phenyl}-piperazine-1-sulfonylamino)-3-methylbutanoic acid] | 21 nM | > 10000 nM | > 10000 nM |

Other lines, results leading:

| IC50 (MMP-13) | IC50 (MMP-9) | IC50 (MMP-2) | Molecule |
| --- | --- | --- | --- |
| 4 nM | > 10000 nM | 1000 to 10000 nM | CC(C)[C@@H](NS(=O)(=O)N1CCN(c2ccc(C#Cc3ccnc(C(=O)NCc4ccc5c(c4)OCCO5)c3)cc2)CC1)C(=O)O [III-205, (R)-2-[4-(4-{2-[(2,3-dihydrbenzo[1,4]dioxin-6-ylmethyl)-carbamoyl]-pyridin-4-ylethynyl}-phenyl)-piperazine-1-sulfonylamino]-3-methylbutanoic acid] |
| 4 nM | > 10000 nM | 1000 to 10000 nM | CC(C)[C@@H](NS(=O)(=O)N1CCN(c2ccc(C#Cc3ccnc(C(=O)NCc4ccc5c(c4)OCO5)c3)cc2)CC1)C(=O)O [III-199, (R)-2-[4-(4-{2-[(benzo[1,3]dioxol-5-ylmethyl)-carbamoyl]-pyridin-4-ylethynyl}-phenyl)-piperazine-1-sulfonylamino]-3-methylbutanoic acid] |
| 7 nM | > 10000 nM | 1000 to 10000 nM | Cc1ccc(CNC(=O)c2cc(C#Cc3ccc(N4CCN(S(=O)(=O)N[C@@H](C(=O)O)C(C)C)CC4)cc3)ccn2)cc1F [III-230, (R)-2-(4-{4-[2-(3-fluoro-4-methylbenzylcarbamoyl)-pyridin-4-ylethynyl]-phenyl}-piperazine-1-sulfonylamino)-3-methylbutanoic acid] |
| 17 nM | > 10000 nM | > 10000 nM | CC(C)[C@@H](NS(=O)(=O)N1CCN(c2ccc(C#Cc3ccnc(C(=O)NCc4ccc(F)c(Br)c4)c3)cc2)CC1)C(=O)O [III-210, (R)-2-(4-{4-[2-(3-bromo4-fluorobenzylcarbamoyl)-pyridin-4-ylethynyl]-phenyl}-piperazine-1-sulfonylamino)-3-methylbutanoic acid] |
| 5 nM | > 10000 nM | 1000 to 10000 nM | CC(C)[C@@H](NS(=O)(=O)N1CCN(c2ccc(C#Cc3ccnc(C(=O)NCc4ccc(F)c(F)c4)c3)cc2)CC1)C(=O)O [III-189, (R)-2-(4-{4-[2-(3.4-difluorobenzylcarbamoyl)-pyridin-4-ylethynyl]-phenyl}-piperazine-1-sulfonylamino)-3-methylbutanoic acid] |
| 10 nM | > 10000 nM | > 10000 nM | COc1ccc(CNC(=O)c2cc(C#Cc3ccc(N4CCN(S(=O)(=O)N[C@@H](C(=O)O)C(C)C)CC4)cc3)cn(C)c2=O)cc1 [III-172, (R)-2-(4-{4-[5-(4-methoxybenzylcarbamoyl)-1-methyl-6-oxo-1,6-dihydropyridin-3-yllethynyl]-phenyl}-piperazine-1-sulfonylamino)-3-methylbutanoic acid] |
| 10 nM | > 10000 nM | 1000 to 10000 nM | CC(C)[C@@H](NS(=O)(=O)N1CCN(c2ccc(C#Cc3ccnc(C(=O)NCc4ccc(Cl)c(Cl)c4)c3)cc2)CC1)C(=O)O [III-156, (R)-2-(4-{4-[2-(3,4-dichlorobenzylcarbamoyl)-pyridin-4-ylethynyl]-phenyl}-piperazine-1-sulfonylamino)-3-methylbutanoic acid] |
| 5 nM | > 10000 nM | 1000 to 10000 nM | C[C@@H](NS(=O)(=O)N1CCN(c2ccc(C#Cc3ccc4ccn(Cc5ccccc5)c(=O)c4c3)cc2)CC1)C(=O)O [III-5, (R)-2-{4-[4-(2-benzyl-1-oxo-1,2-dihydroisoquinolin-7-ylethynyl)-phenyl]-piperazine-1-sulfonylamino}-proponic acid] |
| 12 nM | > 10000 nM | > 10000 nM | CC(C)[C@@H](NS(=O)(=O)N1CCN(c2ccc(C#Cc3ccnc(C(=O)NCc4ccc(F)c(Cl)c4)c3)cc2)CC1)C(=O)O [III-179, (R)-2-(4-{4-[2-(3-chloro4-fluorobenzylcarbamoyl)-pyridin-4-ylethynyl]-phenyl}-piperazine-1-sulfonylamino)-3-methylbutanoic acid] |
| 26 nM | > 10000 nM | > 10000 nM | CC(C)[C@@H](NS(=O)(=O)N1CCN(c2ccc(C#Cc3ccnc(C(=O)NCc4ccc(C(F)(F)F)cc4)c3)cc2)CC1)C(=O)O [III-194, (R)-3-methyl-2-(4-{4-[2-(4-trifluoromethylbenzylcarbamoyl)-pyridin-4-ylethynyl]-phenyl}-piperazine-1-sulfonylamino)-butanoic acid] |

Source: US20100099676A1 (SHIONOGI & CO., LTD., priority 2006, published 2010)
